Assay results from US6689938B2, “Method for treatment of insulin resistance in obesity and diabetes” (Oklajoma Medical Research Foundation, priority 2000, dated 2004).

Assays:
Type in all cases: in vivo, mouse
[1] = system: POMC null mutants and wildtype littermates; experiment: Corticosterone supplementation in drinking water, blood glucose levels; settings: 25 μg per mL in drinking water for 3½ months, starting at 3 months of age; POMC null mutants and wildtype females
Method: (§1) In the experiment illustrated in FIG. 7, POMC null mutants and wildtype littermate females, 5 per group, received drinking water containing corticosterone (25 μg per mL) or nothing in addition for 3½ months, starting at 3 months of age. Blood glucose levels were determined before and after corticosterone supplementation.

[2] = system: POMC null mutants and wildtype mice; experiment: Insulin tolerance test after corticosterone supplementation
Method: In this experiment, illustrated in FIG. 6, food was taken away in the morning from 5 month old females, 5 per group. 6 hrs later, the mice were injected with insulin (Human insulin, 1 Unit/kg, i.p.). Blood was collected at times indicated and glucose measured using a Glucometer.
as §1

[3] = system: POMC mutants and wildtype mice; experiment: Insulin tolerance test after MSH or ACTH treatment; settings: for glucoregulatory response / ability of POMC null mice: peripheral administration to POMC null mice
Method: In this experiment, illustrated in FIG. 9, glucose was measured in 4-6 month old female mice, wildtypes and POMC mutants, 5 mice per group. Mice were fasted for 5 hours. Each genotype (wildtype +/+and mutant −/−) received either: (1) 0.1 mL saline i.p.; (2) 0.1 mL saline containing 1 μg α-MSH i.p.; or (3) 0.1 mL saline containing 1 μg ACTH s.c.
One hour later, human insulin (0.5 mIU/g body weight) was injected intraperitoneally in all mice, and glucose was measured at the indicated intervals in blood collected from a tail nick.

Row | Molecule | induction of diabetes (blood glucose levels before and after supplementation) [1] | counterregulatory response in insulin tolerance test ([2]; POMC mutants versus wildtype mice) | blood glucose levels in insulin tolerance test ([2]; both wildtypes and mutants, versus untreated group) | blood glucose levels in insulin tolerance test, treated POMC mutants versus wildtype littermates ([3]; 1 μg α-MSH i.p. one hour before human insulin 0.5 mIU/g i.p., 4-6 month old females fasted 5 hours) | insulin resistance in the POMC null mouse ([3]; administration to the POMC null mouse) | glucoregulatory response / ability of POMC null mice [3] | glucoregulatory response / ability of POMC null mice ([3]; listed as melanocortin stimulating hormone (MSH))
1 | C[C@]12C[C@H](O)[C@H]3[C@@H](CCC4=CC(=O)CC[C@@]43C)[C@@H]1CC[C@@H]2C(=O)CO [corticosterone] | does not induce diabetes | lag behind the wildtype mice in their counterregulatory response in the same manner as without corticosterone supplementation | do not fall to as low a level as in the untreated group | – | – | – | –
2 | Ac-Ser-Tyr-Ser-Met-Glu-His-Phe-Arg-Trp-Gly-Lys-Pro-Val-NH2 [α-MSH] | – | – | – | not significantly different | induces insulin-resistance | restored the glucoregulatory ability | nearly normalizes the glucoregulatory response
